Measurements as given in patent US9439414B2, “Sperm diluent solution and method for artificial insemination using same” (HIROSHIMA UNIVERSITY, priority 2009, dated 2016).

Key:
[1] = tested on: pig sperm; assay: Sperm acrosomal damage rate (FITC-peanut lectin staining); format: cell-based; settings: EGTA 0, 3, 6, 9 mM in Modena solution
Experimental: (§1) 0-mM-EGTA medium, 3-mM-EGTA medium, 6-mM-EGTA medium and 9-mM-EGTA medium were prepared. As the 0-mM-EGTA medium, Modena solution was used as it is. Further, the 3-mM-EGTA medium, 6-mM-EGTA medium and 9-mM-EGTA medium were prepared by adding EGTA to Modena solution to attain EGTA concentrations of 3 mM, 6 mM and 9 mM, respectively, in the medium. Since addition of EGTA results in more acidic pH of the medium, NaOH was added to the medium to adjust pH to 7.0 to 7.1.
To each medium, frozen sperm were added after thawing as in Experimental Example 1, and the sperm was cultured. The culturing time was 1 hour, 3 hours or 6 hours.
The measurement of the sperm motility and detection of phosphorylation of tyrosine residues of the sperm proteins were carried out in the same manner as described above. The measurement of the sperm acrosomal damage rate was carried out as follows. On a slide glass, 5 μl of the medium was smeared, followed by air drying and 10 minutes of fixation with 99% methanol. After drying the methanol, marking was done with a liquid pen. FITC-peanut lectin was added to the smeared sperm (about 30 μl per sample), followed by 30 minutes of incubation at 37° C. in a moist atmosphere. Thereafter, the sperm were washed with PBS (5 minutes×3 times) and embedded in DAPI (VECTOR, VECTASHIELD with DAPI, H-1200) and then in manicure, followed by observation of the sperm.

[2] = tested on: pig sperm; assay: Sperm motility by motility analyzer (CASA); format: cell-based; settings: EGTA 0, 3, 6, 9 mM added to Modena solution (6.3 mM EDTA); 1, 3 or 6 hours
Experimental: Media having concentrations of EDTA of 0 mM, 3 mM, 6.3 mM and 12 mM were prepared. The 0-mM-EDTA medium and the 3-mM-EDTA medium were prepared by removing EDTA-2Na from Modena solution and adjusting the EDTA concentration to 0 mM and 3 mM, respectively. As the 6.3-mM-EDTA medium, Modena solution was used as it is. Further, the 12-mM-EDTA medium was prepared by adding EDTA-2Na to Modena solution to attain an EDTA concentration of 12 mM.
To each medium, frozen sperm were added after thawing as in Experimental Example 1, and the sperm were cultured. The culturing time was 1 hour, 3 hours or 6 hours.
After the culture, the sperm motility was calculated using a motility analyzer (computer-assisted sperm motility analysis (CASA) system). On a plate prewarmed to 38° C., 5 μl of the medium after the culture was placed, and the ratio of moving sperm was analyzed using a computer.
as §1, with “7.1. […]” for “7.1.”

[3] = tested on: mother pigs and piglets; assay: Health of mother pigs and piglets after artificial insemination with the cortisol-containing sperm diluent; format: in vivo, pig; settings: 5 μg cortisol injected to the uterus
Experimental: Although the above adrenocortical hormone (a steroid hormone such as cortisol) is usually injected at a dose of 5 to 50 mg per individual for therapy of livestock, only 5 μg was injected to the uterus in the artificial insemination of the present Example. Thus, since this dose is about 1,000 to 10,000 times smaller than the dose in the cases of therapeutic use, it is thought that the meat of the mother pig and the fetuses in the uterus are not affected.

Row | Structure (SMILES) | sperm acrosomal damage rate (FIG. 5) [1] | sperm motility (FIG. 3) [2] | deformed piglets after the delivery [3]
1 | O=C(O)CN(CCOCCOCCN(CC(=O)O)CC(=O)O)CC(=O)O [EGTA, ethylene glycol Bis(2-aminoethyl)-N,N,N′,N′-tetraacetic acid] | low | high | –
2 | C[C@]12CCC(=O)C=C1CC[C@@H]1[C@@H]2[C@@H](O)C[C@@]2(C)[C@H]1CC[C@]2(O)C(=O)CO [cortisol] | – | – | no deformed piglet was found
